Read-outs that look alike come from different tables or passages of the source.
Experiments:
Format in all cases: cell-based
Details in all cases: alone, 7 days after inoculation
Pyricularia oryzae = test system: Pyricularia oryzae
Phytophthora infestans = test system: Phytophthora infestans
Botrytis cinerea = assay: Microtiterplate test, activity against the grey mold Botrytis cinerea
Leptosphaeria nodorum = assay: Microtiter test, activity against wheat leaf spots caused by Leptosphaeria nodorum
[1] = test system: Qol resistant iso-late of Pyrenophora teres; assay: Microtiter test, activity against Pyrenophora teres

How did the Observed efficacy (Pyricularia oryzae; 63 ppm) turn out when `CN/C(=N\[N+](=O)[O-])NCc1cnc(Cl)s1` [Clothianidin] was run?
The Observed efficacy was 0.

`N#Cc1ccc(Oc2ccc(C(F)(F)C(O)(Cn3ncnc3S)c3ccc(F)cc3F)nc2)cc1` (stereo not shown) [Compound I, 4-[[6-[2-(2,4-difluorophenyl)-1,1-difluoro-2-hydroxy-3-(5-sulfanyl-1,2,4-triazol-1-yl)propyl]-3-pyridyl]oxy]benzonitrile] was tested. Which Observed efficacy (Phytophthora infestans; 4 ppm, 405 nm, 0 = growth as untreated control, 100 = no growth) did it give?
The Observed efficacy was 24.

What about the Observed efficacy (Botrytis cinerea; 4 ppm, 405 nm) of the same compound?
The Observed efficacy was 24.

What about the Observed efficacy (Leptosphaeria nodorum; 0.25 ppm) of the same compound?
Its Observed efficacy is 0.

What about the Observed efficacy (Leptosphaeria nodorum; 1 ppm) of the same compound?
Its Observed efficacy is 20.

And the Observed efficacy (Leptosphaeria nodorum; 4 ppm, 405 nm)?
Its Observed efficacy is 37.

What about the Observed efficacy (Pyricularia oryzae; 1 ppm, 405 nm) of the same compound?
Its Observed efficacy is 0.

And the Observed efficacy ([1]; 4 ppm, 405 nm)?
Its Observed efficacy is 0.

With `N#Cc1c[nH]cc1-c1cccc2c1OC(F)(F)O2` [Fludioxonil] as the compound, how does the Observed efficacy (Pyricularia oryzae; 0.016 ppm) read?
Its Observed efficacy is 9.

What about the Observed efficacy (Pyricularia oryzae; 0.063 ppm) of the same compound?
Its Observed efficacy is 17.

And the Observed efficacy (Pyricularia oryzae; 0.25 ppm)?
Its Observed efficacy is 26.

How did the Observed efficacy (Pyricularia oryzae; 63 ppm) turn out when `O=[N+]([O-])NC1=NCCN1Cc1ccc(Cl)nc1` [Imidacloprid] was run?
The Observed efficacy was 0.

How did the Observed efficacy (Pyricularia oryzae; 16 ppm) turn out when `CC(C)C1CCC(Cc2ccc(Cl)cc2)C1(O)Cn1cncn1` (stereo not shown) [Ipconazol] was run?
Its Observed efficacy is 0.

What does the source list for `CC(O)(Cn1cncn1)c1ccc(Oc2ccc(Cl)cc2)cc1C(F)(F)F` (stereo not shown) [Mefentrifluconazol]?
Observed efficacy (Phytophthora infestans; 0.016 ppm): 0; Observed efficacy (Botrytis cinerea; 0.016 ppm): 0; Observed efficacy (Leptosphaeria nodorum; 0.016 ppm): 39; Observed efficacy ([1]; 0.25 ppm): 31

`Cc1cc(C(F)(F)F)nn1CC(=O)N1CCC(c2nc(C3=NOC(c4c(F)cccc4F)C3)cs2)CC1` (stereo not shown) [Oxathiapirolin] was tested. Which Observed efficacy (Pyricularia oryzae; 16 ppm) did it give?
The Observed efficacy was 0.

Which Observed efficacy (Leptosphaeria nodorum; 0.016 ppm) does the source give for `COC(=O)N(OC)c1ccccc1COc1ccn(-c2ccc(Cl)cc2)n1` [Pyraclostrobin] here?
Its Observed efficacy is 42.

With `CC(c1ccc(C(F)(F)F)nc1)S(C)(=O)=NC#N` (stereo not shown) [Sulfoxaflor] as the compound, how does the Observed efficacy (Pyricularia oryzae; 63 ppm) read?
The Observed efficacy was 0.

Which Observed efficacy (Pyricularia oryzae; 4 ppm) does the source give for `COC(=O)NC(=S)Nc1ccccc1NC(=S)NC(=O)OC` [Thiophanate methyl] here?
The Observed efficacy was 0.

How did the Observed efficacy (Pyricularia oryzae; 63 ppm) turn out when Spinetoram was run?
The Observed efficacy was 0.
